Measured values as given in BindingDB's records for doi:10.1021/jm00039a008 (Albany Molecular Research, 1994).
Counter-ions that a name gives are not always drawn.

Test: Affinity at sigma-1 site by inhibition of [3H](+)-pentazocine (PENT) binding in guinea pig brain

Row | Structure (SMILES) | Ki
1 | O=C(OCCN1CCN(c2ccccc2)CC1)C1(c2ccc(Cl)cc2)CCCC1 [1-(4-Chloro-phenyl)-cyclopentanecarboxylic acid 2-(4-phenyl-piperazin-1-yl)-ethyl ester; hydrochloride] | 77 nM
2 | O=C(OCCN1CCC(c2ccccc2)CC1)C1(c2ccc(Cl)cc2)CCCC1 [1-(4-Chloro-phenyl)-cyclopentanecarboxylic acid 2-(4-phenyl-piperidin-1-yl)-ethyl ester; hydrochloride] | 1.3 nM
3 | O=C(OCCCN1CCC(c2ccccc2)CC1)C1(c2ccc(Cl)cc2)CCCC1 [1-(4-Chloro-phenyl)-cyclopentanecarboxylic acid 3-(4-phenyl-piperidin-1-yl)-propyl ester; hydrochloride] | 1.5 nM
4 | N#Cc1ccc(C2(C(=O)OCCN3CCC(c4ccccc4)CC3)CCCC2)cc1 [1-(4-Cyano-phenyl)-cyclopentanecarboxylic acid 2-(4-phenyl-piperidin-1-yl)-ethyl ester; hydrochloride] | 1.3 nM
5 | O=C(OCCN1CCN(c2ccccc2)CC1)C1(c2ccc(I)cc2)CCCC1 [1-(4-Iodo-phenyl)-cyclopentanecarboxylic acid 2-(4-phenyl-piperazin-1-yl)-ethyl ester; hydrochloride] | 23 nM
6 | O=C(OCCN1CCC(c2ccccc2)CC1)C1(c2ccc(I)cc2)CCCC1 [1-(4-Iodo-phenyl)-cyclopentanecarboxylic acid 2-(4-phenyl-piperidin-1-yl)-ethyl ester; hydrochloride] | 1.4 nM
7 | O=C(OCCCN1CCC(c2ccccc2)CC1)C1(c2ccc(I)cc2)CCCC1 [1-(4-Iodo-phenyl)-cyclopentanecarboxylic acid 3-(4-phenyl-piperidin-1-yl)-propyl ester; hydrochloride] | 0.88 nM
8 | COc1ccc(C2(C(=O)OCCN3CCC(c4ccccc4)CC3)CCCC2)cc1 [1-(4-Methoxy-phenyl)-cyclopentanecarboxylic acid 2-(4-phenyl-piperidin-1-yl)-ethyl ester; hydrochloride] | 1 nM
9 | COc1ccc(C2(C(=O)OCCCN3CCC(c4ccccc4)CC3)CCCC2)cc1 [1-(4-Methoxy-phenyl)-cyclopentanecarboxylic acid 3-(4-phenyl-piperidin-1-yl)-propyl ester; hydrochloride] | 0.65 nM
10 | O=C(OCCN1CCN(c2ccccc2)CC1)C1(c2ccc([N+](=O)[O-])cc2)CCCC1 [1-(4-Nitro-phenyl)-cyclopentanecarboxylic acid 2-(4-phenyl-piperazin-1-yl)-ethyl ester; hydrochloride] | 2.8 nM
11 | O=C(OCCCN1CCC(c2ccccc2)CC1)C1(c2ccc([N+](=O)[O-])cc2)CCCC1 [1-(4-Nitro-phenyl)-cyclopentanecarboxylic acid 3-(4-phenyl-piperidin-1-yl)-propyl ester; hydrochloride] | 0.27 nM
12 | O=C(OCCN1CCN(c2ccccc2)CC1)C1(c2ccccc2)CCCC1 [1-Phenyl-cyclopentanecarboxylic acid 2-(4-phenyl-piperazin-1-yl)-ethyl ester; hydrochloride] | 63 nM
13 | O=C(OCCN1CCC(c2ccccc2)CC1)C1(c2ccccc2)CCCC1 [1-Phenyl-cyclopentanecarboxylic acid 2-(4-phenyl-piperidin-1-yl)-ethyl ester; hydrochloride] | 4 nM
14 | O=C(OCCCCN1CCC(c2ccccc2)CC1)C1(c2ccccc2)CCCC1 [1-Phenyl-cyclopentanecarboxylic acid 4-(4-phenyl-piperidin-1-yl)-butyl ester; hydrochloride] | 0.51 nM
15 | O=C(OCCCCCCN1CCC(c2ccccc2)CC1)C1(c2ccccc2)CCCC1 [1-Phenyl-cyclopentanecarboxylic acid 6-(4-phenyl-piperidin-1-yl)-hexyl ester; hydrochloride] | 1.2 nM

Test: Binding affinity was measured as selectivity for sigma-1 site over muscarinic (M1) receptor in rat

Row | Structure (SMILES) | Ki
16 | COc1ccc2c(c1)[C@]13CCCC[C@@H]1[C@H](C2)N(C)CC3 [DEXTROMETHORPHAN] | 5070 nM
